Columns and labels:
DC2.4 dendritic cells = conditions: cited from earlier work; for ability to stimulate the expression of CD 80 on DC 2.4 cells (relative potency): comparison by head group and acyl chain; for expression of CD80/CD86: liposomes, DC2.4 cells
TC-1 HPV-positive tumors = assay: TC-1 HPV-positive tumor growth in mice treated with cationic lipid/E7 compositions; assay type: in vivo; conditions: for ability to eradicate HPV-E7 positive tumors in tumor-bearing mice (tumor regression): lipid/E7 formulations, multiple lipid doses, summary statements
Protocol: TC-1 cells are C57BL/6 mouse lung […] cells that have been transformed with the HPV16 E6 and E7 oncogenes and activated H-ras. Cells were grown in RPMI medium (commercially available from Invitrogen of Carlsbad, CA) supplemented with 10% fetal bovine serum and 100 U/ml penicillin, and […] streptomycin. The MHC class I restricted peptide from the HPV 16 E7 protein (amino acid 11 to 20, YMLDLQPETT [SEQ. ID. NO. 1]) was synthesized by the University of Pittsburgh Peptide Synthesis Facility by solid state synthesis using an Advanced ChemTech model 200 peptide synthesizer and purified by HPLC.
In FIG. 12, mice were subcutaneously injected with TC-1 cells on day 0 in order to induce the growth of HPV-positive tumors. The DOTAP/E7 compositions were comprised of racemic mixtures of DOTAP. The mice received DOTAP/E7 compositions containing 10 μg E7 peptide subcutaneously on the opposite side of the abdomen on day 6.
In FIGS. 13 and 14, mice were subcutaneously injected with TC-1 cells on day 0 in order to induce the growth of HPV-positive tumors. The mice received R and S-DOTAP/E7 compositions containing 20 μg E7 peptide subcutaneously on the opposite side of the abdomen on day 6. R or S-DOTAP lipid concentrations in the complex varied from 3 to 600 nmole (3, 15, 30, 75, 100, 125, 150, 300, and 600 nmole).

human T lymphocytes = conditions: cited from earlier work
purified human T-cells = assay: Induction of human T-cell proliferation by R and S enantiomers of DOTAP; assay type: cell-based
Description: In the present studies, the induction of human T-cell proliferation by the R and S enantiomers of DOTAP was investigated and confirmed using purified T-cells obtained from Lonza, MA.

[1] = system: Human HLA-A2 dendritic cells; assay: Chemokine and cytokine production by human dendritic cells (Searchlight Protein Array Multiplex ELISA); assay type: cell-based; conditions: 40 micromolar complex
Protocol: Human HLA-A2 dendritic cells (Lonza, Walkersville, MD), were treated and grown in culture as described above. On day 3 the cells were treated with 40 micromolar DOTAP/E7 complex or the potent immunostimulator lipopolysaccharide (LPS) at 50 micromolar concentrations (positive control). Medium from assay wells was removed and centrifuged at 1300 rpm in a microfuge for 5 minutes to pellet unattached dendritic cells. The supernatants were removed and treated with 10 microliters per ml of Calbiochem (La Jolla, CA) protease inhibitor cocktail set I (Cat. No. 539131) and stored frozen prior to analysis. Samples were analyzed for chemokine and cytokine expression by Searchlight Protein Array Multiplex ELISA assay [Pierce Biotechnology (Woburn, MA)].

[2] = lipid 600 nmole with 20 μg E7 peptide, s.c. day 6 (S-DOTAP P<0.05)

CCCCCCCCCCCCCC(=O)OCC(COP(=O)(OCC)OCC[N+](C)(C)C)OC(=O)CCCCCCCCCCCCC (stereo not drawn) [DMEPC-14:0, 1,2-dimyristoyl-sn-glycero-3-ethylphosphocholine]
ability to stimulate the expression of CD 80 on DC 2.4 cells (relative potency) (DC2.4 dendritic cells): more potent

CCCCCCCCCCCCCCOC(=O)CC[C@H](NC(=O)[C@@H](N)CCCCN)C(=O)OCCCCCCCCCCCCCC [DMKD, O,O′-dimyristyl-N-lysyl-glutamate]
expression of CD80/CD86 (DC2.4 dendritic cells): strongly stimulated

CCCCCCCCCCCCCCOC(=O)C[C@H](NC(=O)[C@@H](N)CCCCN)C(=O)OCCCCCCCCCCCCCC [DMKE, O,O′-dimyristyl-N-lysyl aspartate]
expression of CD80/CD86 (DC2.4 dendritic cells): strongly stimulated

CCCCCCCC/C=C\CCCCCCCC(=O)OC[C@@H](COP(=O)(OCC)OCC[N+](C)(C)C)OC(=O)CCCCCCC/C=C\CCCCCCCC (stereo partly drawn) [DOEPC-18:1, 1,2-dioleoyl-sn-glycero-3-ethylphosphocholine]
ability to stimulate the expression of CD 80 on DC 2.4 cells (relative potency) (DC2.4 dendritic cells): more potent

CCCCCCCC/C=C\CCCCCCCC(=O)OC[C@H](COP(=O)(O)OCC(O)CO)OC(=O)CCCCCCC/C=C\CCCCCCCC (stereo partly drawn) [DOPG, 1,2-dioleoyl-sn-glycero-3-phosphoglycerol]
inhibition of tumor growth (TC-1 HPV-positive tumors; anionic lipid liposomes 150 nmole with antigen): failed to significantly inhibit tumor growth

CCCCCCCC/C=C\CCCCCCCC(=O)OC[C@@H](C[N+](C)(C)C)OC(=O)CCCCCCC/C=C\CCCCCCCC [DOTAP, 1,2-dioleoyl-3-trimethylammoninum propane]
expansion of T cell colonies in culture (human T lymphocytes; HLA-A2+ donor lymphocytes, three stimulations at 7-day interval, three days after third, versus medium control): extensive expansion of T cell colonies
ERK phosphorylation in T cells (human T lymphocytes): confirmed by ERK phosphorylation
expression of costimulatory molecule CD86 on human T lymphocytes (human T lymphocytes): induced expression of the costimulatory molecule, CD86
inhibition of tumor growth (TC-1 HPV-positive tumors; liposomes 100 nmole, without E7 peptide): did not show significant inhibition of tumor growth
tumor growth versus untreated control on day 23 (TC-1 HPV-positive tumors; racemic DOTAP 15 nmole with 10 μg E7 peptide, s.c. day 6, P<0.05): partial tumor inhibition effect
tumor growth versus untreated control on day 23 (TC-1 HPV-positive tumors; racemic DOTAP 30 nmole with 10 μg E7 peptide, s.c. day 6, P<0.01): enhanced efficacy
tumor growth versus untreated control on day 23 (TC-1 HPV-positive tumors; racemic DOTAP 75 nmole with 10 μg E7 peptide, s.c. day 6, P<0.001): most significant tumor regression effect
tumor growth versus untreated control on day 23 (TC-1 HPV-positive tumors; racemic DOTAP 150 nmole with 10 μg E7 peptide, s.c. day 6, P<0.01): enhanced efficacy
tumor growth versus untreated control on day 23 (TC-1 HPV-positive tumors; racemic DOTAP 300 nmole with 10 μg E7 peptide, s.c. day 6, P<0.01): enhanced efficacy
tumor growth versus untreated control on day 23 (TC-1 HPV-positive tumors; racemic DOTAP 600 nmole with 10 μg E7 peptide, s.c. day 6): did not show anti-tumor activity

CCCCCCCCCCCC(=O)OC[C@H](COP(=O)(OCC)OCC[N+](C)(C)C)OC(=O)CCCCCCCCCCC (stereo partly drawn) [DXEPC-12:0, 1,2-dilauroyl-sn-glycero-3-ethylphosphocholine]
ability to stimulate the expression of CD 80 on DC 2.4 cells (relative potency) (DC2.4 dendritic cells): more potent

CCCCCCCC/C=C\CCCCCCCC(=O)OC[C@@H](C[N+](C)(C)C)OC(=O)CCCCCCC/C=C\CCCCCCCC [R-DOTAP, 1,2-dioleoyl-3-trimethylammoninum propane]
induction of human T-cell proliferation (purified human T-cells): induced more T-cell proliferation than S-DOTAP
potency in inducing chemokine and cytokine production relative to DOTAP racemic mixture [1]: equivalent to or higher than
potency in inducing chemokine and cytokine production, R versus S enantiomer [1]: more potent immune activator than S-DOTAP
potency in inducing chemokine and cytokine production, R versus S enantiomer ([1]; listed as R-enantiomer): higher potency
tumor growth versus untreated control on day 23 (TC-1 HPV-positive tumors; lipid 300 nmole with 20 μg E7 peptide, s.c. day 6, P<0.0001): most significant tumor regression efficacy
tumor growth versus untreated control on day 23 (TC-1 HPV-positive tumors; [2]): did not show significant anti-tumor activity
tumor growth versus untreated control on day 23 (TC-1 HPV-positive tumors; lipid 75-150 nmole with 20 μg E7 peptide, s.c. day 6, P<0.001): partial tumor inhibition effect
ability to eradicate HPV-E7 positive tumors in tumor-bearing mice (tumor regression) (TC-1 HPV-positive tumors): results in tumor regression

CCCCCCCC/C=C\CCCCCCCC(=O)OC[C@@H](C[N+](C)(C)C)OC(=O)CCCCCCC/C=C\CCCCCCCC [S-DOTAP, 1,2-dioleoyl-3-trimethylammoninum propane]
induction of human T-cell proliferation (purified human T-cells): confirmed
tumor growth versus untreated control on day 23 (TC-1 HPV-positive tumors; [2]): induced the slowest tumor growth
tumor growth / tumor regression over the lipid dose series (TC-1 HPV-positive tumors; lipid 3 to 600 nmole with 20 μg E7 peptide, s.c. day 6): did not exhibit the ability to inhibit tumor growth and no tumor regression was observed
ability to eradicate HPV-E7 positive tumors in tumor-bearing mice (tumor regression) (TC-1 HPV-positive tumors): only limited tumor regression
dose range that effectively attenuates tumor growth (TC-1 HPV-positive tumors; rodent species, listed as S-enantiomer of DOTAP): effective over this same range of doses

YMLDLQPETT (Human papillovirus subtype 16 E7 oncogene tumor-associated antigen MHC class I restricted peptide) [E7 peptide, ID; NO]
inhibition of tumor growth (TC-1 HPV-positive tumors; peptide alone, no lipid (not shown)): did not show any inhibition of tumor growth

— patent US11801257B2, “Stimulation of an immune response by enantiomers of cationic lipids” (PDS Biotechnology Corporation, priority 2008, dated 2023)
